Laboratory results taken from paper PMC11762577 (Materials Today Bio, 2025).

Assays:
U87-MG cells = assay: CCK-8 cell viability / cytotoxicity assay in U87-MG cells; type: cell-based, human; conditions: incubation with U87-MG cells for 24 h
[1] = type: in vivo, BALB/c nude mice; conditions: orthotopic glioma nude mice; 2.5 mg/kg Dox equivalent every three days; n = 5

COc1cccc2c1C(=O)c1c(O)c3c(c(O)c1C2=O)C[C@@](O)(C(=O)CO)C[C@@H]3O[C@H]1C[C@H](N)[C@H](O)[C@H](C)O1 [Dox, doxorubicin]
IC50 (equivalent Dox concentration), U87-MG cell viability (U87-MG cells): 3.49 µg/mL | body weight of tumor-bearing mice [1]: decreased on day 12
